# Measurements published in BindingDB's records for doi:10.7270/Q2PR7TCX (The Scripps Research Institute Molecular Screening Center, 2007).
# Where a name gives a salt, the structure may show the parent alone.
# Biological target: Steroidogenic factor 1 (Homo sapiens, UniProt Q13285)
# Experiment: SF-1 inhibitors in Gal4 reporter counter-screen, dose response, counter-screen for RORA inhibitor project, cell-based, CHO-K1, Gal4-SF-1 LBD, luciferase luminescence (AID 611)
# Conditions: not given
# Sequence of Steroidogenic factor 1 (Q13285 whole entry, the tested form may be a part): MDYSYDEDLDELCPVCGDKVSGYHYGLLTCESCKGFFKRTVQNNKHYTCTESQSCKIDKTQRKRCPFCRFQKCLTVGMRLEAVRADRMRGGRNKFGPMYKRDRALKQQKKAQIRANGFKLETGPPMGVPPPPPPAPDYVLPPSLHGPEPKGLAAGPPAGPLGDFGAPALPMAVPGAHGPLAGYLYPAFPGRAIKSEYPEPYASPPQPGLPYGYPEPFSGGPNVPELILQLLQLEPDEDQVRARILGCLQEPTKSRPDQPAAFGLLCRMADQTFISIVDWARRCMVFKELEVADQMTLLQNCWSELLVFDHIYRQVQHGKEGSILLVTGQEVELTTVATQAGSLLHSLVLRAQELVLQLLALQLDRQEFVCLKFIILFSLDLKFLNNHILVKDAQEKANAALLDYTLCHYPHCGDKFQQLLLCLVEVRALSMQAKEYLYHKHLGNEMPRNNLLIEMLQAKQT
row,Structure (SMILES),IC50
1,"O=C(Nc1nc(-c2ccccn2)cs1)c1ccc(Cl)s1 [5-chloranyl-N-(4-pyridin-2-yl-1,3-thiazol-2-yl)thiophene-2-carboxamide]",4 µM
2,Cc1ccc(S(=O)(=O)Nc2cccc3ncccc23)s1 [5-methyl-N-quinolin-5-ylthiophene-2-sulfonamide],5.33 µM
3,"O=S(=O)(c1ccccc1)N1CCN(c2cc(-c3ccccc3)nc3ncnn23)CC1 [5-phenyl-7-[4-(phenylsulfonyl)piperazin-1-yl]-[1,2,4]triazolo[1,5-a]pyrimidine]",8.96 µM
4,"O=S1(=O)Nc2c(ccc3cccnc23)-c2ccccc21 [5H-quinolino[8,7-c][1,2]benzothiazine 6,6-dioxide]",4.43 µM
5,"C[C@@]1(CO)[C@H](O)CC[C@@]2(C)[C@H]1CC[C@H]1C[C@@H]3C[C@@]12CC[C@]3(O)CO [6,13-di(hydroxymethyl)-2,6-dimethyl-(1S,2S,5R,6R,7R,10S,12R,13R)-tetracyclo[10.3.1.01,10.02,7]hexadecane-5,13-diol (Aphidicolin)]",0.519 µM
6,"COC(=O)C1C(=CN2CCCc3ccccc32)NC(=O)NC1c1ccc(F)cc1 (centres undefined) [6-(3,4-dihydro-2H-quinolin-1-ylmethyl)-4-(4-fluorophenyl)-2-keto-3,4-dihydro-1H-pyrimidine-5-carboxylic acid methyl ester]",6.66 µM
7,C[S+]([O-])c1nc(-c2ccc(Br)cc2)cc(-c2ccccc2)c1C#N (centres undefined) [6-(4-bromophenyl)-2-(methylsulfinyl)-4-phenylnicotinonitrile],8.07 µM
8,O=C(O)CCCCCn1c(O)csc1=S [6-(4-keto-2-thioxo-thiazolidin-3-yl)hexanoic acid],> 99 µM
9,Cc1ccc(Nc2cc(C)nn2-c2nc(C)cc(O)n2)cc1 [6-methyl-2-[3-methyl-5-(4-methylanilino)pyrazol-1-yl]-1H-pyrimidin-4-one],4.15 µM
10,"Cc1ccc2nc(-c3ccccc3)cn2c1 [6-methyl-2-phenyl-imidazo[1,2-a]pyridine;hydrobromide]",1.93 µM
11,"Cn1c(-c2ccccc2)cc2c3no[n+]([O-])c3ccc21 [6-methyl-3-oxidanidyl-7-phenyl-pyrrolo[2,3-g][2,1,3]benzoxadiazol-3-ium]",6.06 µM
12,"COc1cccc(-c2nnc3n2N=C(C(C)(C)C)CS3)c1 [6-tert-butyl-3-(3-methoxyphenyl)-7H-[1,2,4]triazolo[3,4-b][1,3,4]thiadiazine]",7.59 µM

# Next, values leading:
row,IC50,Structure (SMILES)
1,3.18 µM,Cn1nc(C(C)(C)C)cc1C(=O)NCc1ccc(N2CCCC2=O)cc1 [5-tert-Butyl-2-methyl-2H-pyrazole-3-carboxylic acid 4-(2-oxo-pyrrolidin-1-yl)-benzylamide]
2,0.39 µM,"CCOc1ccc(C2=Nn3c(nnc3-c3ccccc3OC)SC2)cc1 [6-(4-ethoxyphenyl)-3-(2-methoxyphenyl)-7H-[1,2,4]triazolo[3,4-b][1,3,4]thiadiazine]"
3,1.73 µM,"CCc1ccc(-c2cn3nc(C)c(C)nc3n2)cc1 [6-(4-ethylphenyl)-2,3-dimethyl-imidazo[1,2-b][1,2,4]triazine]"
4,5.29 µM,"CC(C)Cn1c(N)c(C(=O)CSc2ccc3c(c2)OCCO3)c(=O)n(C)c1=O [6-amino-5-[2-(2,3-dihydro-1,4-benzodioxin-6-ylsulfanyl)acetyl]-3-methyl-1-(2-methylpropyl)pyrimidine-2,4-dione]"
5,> 33 µM,"C=CCOc1nc2c(c(=O)n(C)c(=O)n2C)n1Cc1ccc(Cl)cc1Cl [7-[(2,4-dichlorophenyl)methyl]-1,3-dimethyl-8-prop-2-enoxy-purine-2,6-dione]"
6,> 11 µM,"C=CCOc1nc2c(c(=O)n(C)c(=O)n2C)n1Cc1ccc(Cl)cc1 [7-[(4-chlorophenyl)methyl]-1,3-dimethyl-8-prop-2-enoxy-purine-2,6-dione]"

# Same assay, conditions: inactive by the depositor's call
row,IC50,Structure (SMILES)
1,10.7 µM,"COc1cccc(Cn2c(NCc3ccco3)nc3c2c(=O)n(C)c(=O)n3C)c1 [8-(2-furanylmethylamino)-7-[(3-methoxyphenyl)methyl]-1,3-dimethylpurine-2,6-dione]"
